The record followed here is ChEMBL document CHEMBL2146461, “Synthesis and antiplasmodial activity of new heteroaryl derivatives of 7-chloro-4-aminoquinoline” (Bioorg Med Chem, 2012).

The nature of series [1]: Cytotoxicity against human HMEC1 cells after 72 hrs by MTT assay. The note with it: HMEC-1, 72 h. It counts as cell-based.
Series [2] can be described thus: Inhibition of beta-hematin formation assessed as ratio of drug to haemin for 50% inhibition by BHIA assay. It counts as functional.
A short description of series [3]: Lipophilicity, log P of the compound at pH 7.4. It is filed as physicochemical. The note with it: buffer, read-out: logP.
Series [4] relates to Plasmodium falciparum. The experiment in a line: Ratio of chloroquine IC50 to compound IC50 for chloroquine-resistant Plasmodium falciparum W2. It counts as functional.
Series [5] has as its system Plasmodium falciparum. The experiment in a line: Antiplasmodial activity against chloroquine-sensitive Plasmodium falciparum D10 infected in human red blood cells after 72 hrs by parasite lactate dehydrogenase assay. As to conditions: D10, 72 h. It counts as functional, organism-based.
Series [6] concerns Plasmodium falciparum. The experiment in a line: Antiplasmodial activity against chloroquine-resistant Plasmodium falciparum W2 infected in human red blood cells after 72 hrs by parasite lactate dehydrogenase assay. It counts as functional, organism-based. As to conditions: W2, 72 h.
The subject of series [7] is Plasmodium falciparum. The experiment in a line: Ratio of chloroquine IC50 to compound IC50 for chloroquine-sensitive Plasmodium falciparum D10. It counts as functional.
Series [8] is described as follows: Selectivity index, ratio of IC50 for human HMEC1 cells to IC50 for chloroquine-resistant Plasmodium falciparum W2. It is filed as toxicity, cell-based. As to conditions: read-out: Ratio IC50.
Series [9] is described as follows: n-octanol-KCl distribution coefficient, log D of the compound at pH 7.4. It counts as physicochemical.
Series [10] is described as follows: Resistance index, ratio of IC50 for chloroquine-resistant Plasmodium falciparum W2 to IC50 for chloroquine-sensitive Plasmodium falciparum D10. It is filed as functional.
Series [11] is described as follows: Dissociation constant, pKa of the compound. It is filed as physicochemical.

The structures appear in SMILES notation.

For `CCN(CC)CCCC(C)Nc1ccnc2cc(Cl)ccc12` (stereo unspecified) [CHLOROQUINE], the IC50 in series [1] is greater than 38000 nM; in series [2], 1.94 molar ratio.

In general, logP refers to the decadic logarithm of the partition coefficient of the neutral form, usually between octanol and water. The logD is lipophilicity at a set pH, counting ionised and neutral species. Low values mean a more hydrophilic compound, high ones a more lipophilic compound. For `Clc1ccc2c(NCc3ccc(CN4CCCC4)s3)ccnc2c1`, the IC50 stood at 24200 nM in [1], 1.08 molar ratio in series [2], 12.5 nM in the series on Plasmodium falciparum [5] and 26.3 nM in the series with Plasmodium falciparum [6]. Besides, in series [3], the logP was found to be 4.42. Further, the “Ratio IC50” value in the series with Plasmodium falciparum [4] came out at 16.43; in the series with Plasmodium falciparum [7] it was 1.11; in series [10], 2.1. The selectivity ratio in [8] is 921. Further, in [9], the logD stood at 2.77.

One may read the pKa as the pH at which an ionisable group is half protonated. Low readings indicate a stronger acid or weaker base, high ones a weaker acid or stronger base. Take `Clc1ccc2c(NCc3nc(-c4ccccc4)cs3)ccnc2c1`: the logP in series [3] amounted to 5.2. For the same compound, the “Ratio IC50” value with Plasmodium falciparum [4] is 1.09; in the series with Plasmodium falciparum [7] it was 0.07; in [10], 1.9. For the same compound, the results for the IC50 in the series on Plasmodium falciparum [5] and with Plasmodium falciparum [6] were 212 nM and 396 nM, respectively. This compound registered a pKa in series [11] of 6.45. The compound also returned a pH-dependent lipophilicity (logD) in series [9] of 5.15.

In the case of `Clc1ccc2c(NCc3nc(-c4ccccc4)co3)ccnc2c1`, in series [3], the logP worked out at 4.85. For the same compound, the “Ratio IC50” value in the series with Plasmodium falciparum [4] is 0.84; in the series on Plasmodium falciparum [7], 0.05; in [10], 1.9. Further, the IC50 with Plasmodium falciparum [5] came to 270 nM; in the series on Plasmodium falciparum [6], 513 nM. Also, the pKa in series [11] worked out at 6.36. Moreover, the pH-dependent lipophilicity (logD) in series [9] worked out at 4.81.

As to `CN(C)c1ccc(-c2c[nH]c(CNc3ccnc4cc(Cl)ccc34)n2)cc1`, the IC50 in [1] stood at 6670 nM; in series [2] it was 0.42 molar ratio; in the series with Plasmodium falciparum [5] it was 13.4 nM; with Plasmodium falciparum [6] it was 20.9 nM. Besides, the log partition coefficient (logP) in series [3] came out at 5.07. The “Ratio IC50” value worked out at 13.8 with Plasmodium falciparum [4], 0.82 with Plasmodium falciparum [7] and 1.6 in series [10]. Also, in [8], the selectivity ratio came out at 320. This compound also returned a logD in series [9] of 4.75.

For the compound `Clc1ccc(-c2c[nH]c(CNc3ccnc4cc(Cl)ccc34)n2)cc1`, the IC50 was determined as 7450 nM in series [1], 25.8 nM in the series on Plasmodium falciparum [5] and 60.5 nM in the series with Plasmodium falciparum [6]. The logP in series [3] is 5.34. For the same compound, the “Ratio IC50” value with Plasmodium falciparum [4] is 4.77; in the series with Plasmodium falciparum [7], 0.43; in series [10] it was 2.3. Moreover, the selectivity ratio in series [8] was 123. In addition, the logD in series [9] stood at 5.1.

For `Cc1ccc(-c2c[nH]c(CNc3ccnc4cc(Cl)ccc34)n2)cc1`, the results for the IC50 (in [1]; in the series with Plasmodium falciparum [5]; in the series with Plasmodium falciparum [6]) were 7770 nM, 17.2 nM and 40.7 nM, respectively. Moreover, the logP in [3] was determined as 4.95. Further, the “Ratio IC50” value in the series with Plasmodium falciparum [4] stood at 7.1; with Plasmodium falciparum [7] it was 0.64; in [10] it was 2.4. Moreover, the selectivity ratio in series [8] amounted to 191. In addition, the logD in [9] worked out at 4.66.
